Earlier results on one compound are cited in US20220031739A1, “ANTI-VIRAL COMPOSITIONS AND METHODS OF USE THEREOF” (Eye Therapies LLC, priority 2020, published 2022).

This series relates to herpes simplex virus ("HSV").

Turning to `O=c1[nH]c(=O)n([C@H]2C[C@H](O)[C@@H](CO)O2)cc1C(F)(F)F` [Trifluridine, trifluridine], for the setting “likelihood especially high when used for long periods for deeper infections”, the toxicity entry is “causes toxicity of both virus and corneal cells”. Moreover, the “time to treat superficial HSV infections from the start of treatment” value (superficial HSV infections) is no more than 1 week.
